Assay results as given in patent US20140155410A1 (GlaxoSmithKline LLC, priority 2008, published 2014).

Molecular target: T1, Full length Human FAK (Flag-His-TEV-FAK1) (Homo sapiens, UniProt Q05397)
T1 construct: Full length Human FAK was expressed using baculovirus in Sf9 cells; made in house; host or cells: baculovirus in Sf9 cells
Experiment: Biochemical assay for FAK activity, Assay 2: LANCE Ultra ULight peptide phosphorylation, 665 nm/615 nm ratio
Conditions: Flag-His-TEV-FAK1, 10 μM ATP, 30 min pre-incubation; for IC50: read-out: Assay 2 FAK H 31284A TRF PXC50 (converted)
Experimental: Flag-His-TEV-FAK1 was prepared in-house. Full length Human FAK was expressed using baculovirus in Sf9 cells with N-terminal FLAG-6×His tags followed by a TEV cleavage site (FLAG-6×His-TEV-huFAK). […] To measure inhibitors of FAK, compounds were first prepared as a 100× stock in 100% DMSO. […] After incubating for 120 minutes at room temperature, the reaction is quenched by adding 5 uL of 20 mM EDTA and 5nMEu-Anti-pTyr antibody in 1× LANCE detection buffer.

T1 sequence (Q05397 whole entry): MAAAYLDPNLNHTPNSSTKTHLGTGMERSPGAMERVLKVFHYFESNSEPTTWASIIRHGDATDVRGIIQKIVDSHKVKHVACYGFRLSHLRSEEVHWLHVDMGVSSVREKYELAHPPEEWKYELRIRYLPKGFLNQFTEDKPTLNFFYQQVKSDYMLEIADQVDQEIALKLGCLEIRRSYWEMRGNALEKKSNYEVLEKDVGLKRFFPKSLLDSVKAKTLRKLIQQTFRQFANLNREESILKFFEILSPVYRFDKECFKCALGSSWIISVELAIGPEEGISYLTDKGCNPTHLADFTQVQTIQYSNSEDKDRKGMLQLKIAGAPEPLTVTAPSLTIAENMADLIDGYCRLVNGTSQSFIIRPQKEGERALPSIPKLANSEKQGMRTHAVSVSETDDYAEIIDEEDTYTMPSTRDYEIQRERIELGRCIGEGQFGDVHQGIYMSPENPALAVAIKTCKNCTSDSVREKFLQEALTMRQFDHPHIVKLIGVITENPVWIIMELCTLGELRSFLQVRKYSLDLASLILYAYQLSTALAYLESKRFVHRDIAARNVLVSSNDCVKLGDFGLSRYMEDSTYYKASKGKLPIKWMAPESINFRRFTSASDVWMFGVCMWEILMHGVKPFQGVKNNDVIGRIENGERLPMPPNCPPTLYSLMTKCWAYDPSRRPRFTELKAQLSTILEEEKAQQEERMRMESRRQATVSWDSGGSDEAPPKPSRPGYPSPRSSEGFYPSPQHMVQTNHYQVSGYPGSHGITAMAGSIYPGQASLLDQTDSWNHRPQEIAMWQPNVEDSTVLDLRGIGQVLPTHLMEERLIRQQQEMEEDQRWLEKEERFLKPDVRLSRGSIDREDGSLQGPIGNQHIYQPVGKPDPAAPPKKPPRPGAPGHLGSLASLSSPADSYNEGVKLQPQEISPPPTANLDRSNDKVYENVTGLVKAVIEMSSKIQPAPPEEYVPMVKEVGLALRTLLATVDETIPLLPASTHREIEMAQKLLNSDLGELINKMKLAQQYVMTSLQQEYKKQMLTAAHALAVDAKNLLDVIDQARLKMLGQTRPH

Structure (SMILES) | IC50 [nM] | Assay 2 FAK H 31284A TRF PXC50
Cc1cc(Nc2cc(Nc3ccc(F)cc3C(=O)N3CCCN3)c(Cl)cn2)n(C(C)C)n1 [Example 96a, 5-Chloro-N^4-[4-fluoro-2-(1-pyrazolidinylcarbonyl)phenyl]-N^2-[3-methyl-1-(1-methylethyl)-1H-pyrazol-5-yl]-2,4-pyridinediamine] | 20000 | –
CCn1nc(C)cc1Nc1cc(Nc2ccccc2C(=O)NC)c(C2CC2)cn1 [Example 54, 2-[5-Cyclopropyl-2-(2-ethyl-5-methyl-2H-pyrazol-3-ylamino)-pyridin-4-ylamino]-N-methylbenzamide] | 31.6 | –
CONC(=O)c1ccccc1Nc1cc(Nc2cc(C)nn2C)ncc1C1CC1 [Example 55, 2-[5-Cyclopropyl-2-(2,5-dimethyl-2H-pyrazol-3-ylamino)-pyridin-4-ylamino]-N-methoxy-benzamide] | 10 | –
CCn1nc(C)cc1Nc1cc(Nc2c(F)cccc2C(=O)NC)c(C(F)(F)F)cn1 [Example 77, 2-{[2-[(1-Ethyl-3-methyl-1H-pyrazol-5-yl)amino]-5-(trifluoromethyl)-4-pyridinyl]amino}-3-fluoro-N-methylbenzamide] | 1 | –
CONC(=O)c1ccccc1Nc1cc(Nc2cc(CO)nn2C(C)C)ncc1Cl [Example 52, 2-[(5-Chloro-2-{[3-(hydroxymethyl)-1-(1-methylethyl)-1H-pyrazol-5-yl]amino}-4-pyridinyl)amino]-N-(methyloxy)benzamide] | 6.31 | –
CCn1nc(CN(C)C)cc1Nc1cc(Nc2c(F)cccc2C(=O)NOC)c(Cl)cn1 [Example 95e, 2-{[5-Chloro-2-({3-[(dimethylamino)methyl]-1-ethyl-1H-pyrazol-5-yl}amino)-4-pyridinyl]amino}-3-fluoro-N-(methyloxy)benzamide] | 158 | –
CNC(=O)c1cccc(F)c1Nc1cc(Nc2cc(C)nn2C)ncc1C(F)(F)F [Example 78, 2-{[2-[(1,3-Dimethyl-1H-pyrazol-5-yl)amino]-5-(trifluoromethyl)-4-pyridinyl]amino}-3-fluoro-N-methylbenzamide] | 1.58 | –
CCn1nc(CN(C)C)cc1Nc1cc(Nc2c(F)cccc2C(=O)NC)c(Cl)cn1 [Example 92, 2-{[5-Chloro-2-({3-[(dimethylamino)methyl]-1-ethyl-1H-pyrazol-5-yl}amino)-4-pyridinyl]amino}-3-fluoro-N-methylbenzamide] | 501 | –
CCn1nc(COC)cc1Nc1cc(Nc2ccccc2C(=O)NC)c(Cl)cn1 [Example 60, 2-{[5-Chloro-2-({1-ethyl-3-[(methyloxy)methyl]-1H-pyrazol-5-yl}amino)-4-pyridinyl]amino}-N-methylbenzamide] | 12.6 | –
CONC(=O)c1cccc(F)c1Nc1cc(Nc2cnn(C)c2C)ncc1Cl [Example 95f, 2-({5-Chloro-2-[(1,5-dimethyl-1H-pyrazol-4-yl)amino]-4-pyridinyl}amino)-3-fluoro-N-(methyloxy)benzamide] | 2 | –
CCn1nc(C)cc1Nc1cc(Nc2ccccc2C(=O)NOC)c(C2CC2)cn1 [Example 56, 2-[5-Cyclopropyl-2-(2-ethyl-5-methyl-2H-pyrazol-3-ylamino)-pyridin-4-ylamino]-N-methoxy-benzamide] | 15.8 | –
CONC(=O)c1cccc(F)c1Nc1cc(Nc2cc(C)nn2C(C)C)ncc1Cl [Example 72, 2-[(5-Chloro-2-{[3-methyl-1-(1-methylethyl)-1H-pyrazol-5-yl]amino}-4-pyridinyl)amino]-3-fluoro-N-(methyloxy)benzamide] | 2.51 | –
CONC(=O)c1ccccc1Nc1cc(Nc2c(C)cnn2C(C)C)ncc1Cl [Example 49, 2-[(5-Chloro-2-{[4-methyl-1-(1-methylethyl)-1H-pyrazol-5-yl]amino}-4-pyridinyl)amino]-N-(methyloxy)benzamide] | 63.1 | –
CNC(=O)c1ccccc1Nc1cc(Nc2cc(C)nn2C)ncc1C1CC1 [Example 53, 2-[5-Cyclopropyl-2-(2,5-dimethyl-2H-pyrazol-3-ylamino)-pyridin-4-ylamino]-N-methyl-benzamide] | 39.8 | –
CNC(=O)c1cccc(F)c1Nc1cc(Nc2cc(C)nn2C)ncc1Cl [Example 75, 2-({5-Chloro-2-[(1,3-dimethyl-1H-pyrazol-5-yl)amino]-4-pyridinyl}amino)-3-fluoro-N-methylbenzamide] | – | 8.3
CCn1nc(CCN2CCCC2)cc1Nc1cc(Nc2ccccc2C(=O)NC)c(Cl)cn1 [Example 46, 2-{[5-Chloro-2-({1-ethyl-3-[2-(1-pyrrolidinyl)ethyl]-1H-pyrazol-5-yl}amino)-4-pyridinyl]amino}-N-methylbenzamide] | 12.6 | –
CONC(=O)c1cc(Cl)ccc1Nc1cc(Nc2cc(C)nn2C(C)C)ncc1Cl [Example 70] | 6.31 | –

Structure (SMILES) | IC50 [nM] | Assay 2 FAK H 31284A TRF PXC50
CNC(=O)c1ccc(F)cc1Nc1cc(Nc2cc(C)nn2C(C)C)ncc1Cl [Example 86, 2-[(5-Chloro-2-{[3-methyl-1-(1-methylethyl)-1H-pyrazol-5-yl]amino}-4-pyridinyl)amino]-4-fluoro-N-methylbenzamide] | 1.58 | –
CCn1nc(C)cc1Nc1cc(Nc2cc(F)ccc2C(=O)NC)c(Cl)cn1 [Example 88, 2-({5-Chloro-2-[(1-ethyl-3-methyl-1H-pyrazol-5-yl)amino]-4-pyridinyl}amino)-4-fluoro-N-methylbenzamide] | 2.51 | –
CNC(=O)c1cccc(F)c1Nc1cc(Nc2cc(CN(C)C)nn2C)ncc1Cl [Example 91, 2-{[5-Chloro-2-({3-[(dimethylamino)methyl]-1-methyl-1H-pyrazol-5-yl}amino)-4-pyridinyl]amino}-3-fluoro-N-methylbenzamide] | 251 | –
CONC(=O)c1ccccc1Nc1cc(Nc2c(C)cnn2CC(C)C)ncc1Cl [Example 51, 2-[(5-Chloro-2-{[4-methyl-1-(2-methylpropyl)-1H-pyrazol-5-yl]amino}-4-pyridinyl)amino]-N-(methyloxy)benzamide] | 20 | –
CCn1ncc(C)c1Nc1cc(Nc2ccccc2C(=O)NOC)c(Cl)cn1 [Example 50, 2-({5-Chloro-2-[(1-ethyl-4-methyl-1H-pyrazol-5-yl)amino]-4-pyridinyl}amino)-N-(methyloxy)benzamide] | 12.6 | –
CNC(=O)c1ccccc1Nc1cc(Nc2cc(C)nn2C)ncc1C#N [Example 65, 2-({5-Cyano-2-[(1,3-dimethyl-1H-pyrazol-5-yl)amino]-4-pyridinyl}amino)-N-methylbenzamide] | 15.8 | –
CNC(=O)c1cccc(F)c1Nc1cc(Nc2cc(CCO)nn2C)ncc1Cl [Example 89, 2-[(5-Chloro-2-{[3-(2-hydroxyethyl)-1-methyl-1H-pyrazol-5-yl]amino}-4-pyridinyl)amino]-3-fluoro-N-methylbenzamide] | 10 | –
CONC(=O)c1cc(F)ccc1Nc1cc(Nc2cc(C)nn2C(C)C)ncc1Cl [Example 71, 2-[(5-Chloro-2-{[3-methyl-1-(1-methylethyl)-1H-pyrazol-5-yl]amino}-4-pyridinyl)amino]-5-fluoro-N-(methyloxy)benzamide] | 6.31 | –
CCn1nc(C)cc1Nc1cc(Nc2c(F)cccc2C(=O)NOC)c(Cl)cn1 [Example 95a, 2-({5-Chloro-2-[(1-ethyl-3-methyl-1H-pyrazol-5-yl)amino]-4-pyridinyl}amino)-3-fluoro-N-(methyloxy)benzamide] | 1.58 | –
CNC(=O)c1cccc(F)c1Nc1cc(Nc2cc(CCO)nn2C)ncc1C(F)(F)F [Example 82, 3-Fluoro-2-{[2-{[3-(2-hydroxyethyl)-1-methyl-1H-pyrazol-5-yl]amino}-5-(trifluoromethyl)-4-pyridinyl]amino}-N-methylbenzamide] | 0.794 | –
CONC(=O)c1cccc(F)c1Nc1cc(Nc2cc(C)nn2C)ncc1Cl [Example 95b, 2-({5-Chloro-2-[(1,3-dimethyl-1H-pyrazol-5-yl)amino]-4-pyridinyl}amino)-3-fluoro-N-(methyloxy)benzamide] | 2 | –
CCn1nc(CCO)cc1Nc1cc(Nc2c(F)cccc2C(=O)NC)c(C(F)(F)F)cn1 [Example 81, 2-{[2-{[1-Ethyl-3-(2-hydroxyethyl)-1H-pyrazol-5-yl]amino}-5-(trifluoromethyl)-4-pyridinyl]amino}-3-fluoro-N-methylbenzamide] | 2 | –
CONC(=O)c1cccc(F)c1Nc1cc(Nc2cc(CO)nn2C)ncc1Cl [Example 95d, 2-[(5-Chloro-2-{[3-(hydroxymethyl)-1-methyl-1H-pyrazol-5-yl]amino}-4-pyridinyl)amino]-3-fluoro-N-(methyloxy)benzamide] | 20 | –
CCOCc1cc(Nc2cc(Nc3ccccc3C(=O)NC)c(Cl)cn2)n(C(C)C)n1 [Example 61, 2-[(5-Chloro-2-{[3-[(ethyloxy)methyl]-1-(1-methylethyl)-1H-pyrazol-5-yl]amino}-4-pyridinyl)amino]-N-methylbenzamide] | 25.1 | –
CCn1nc(C)cc1Nc1cc(Nc2ccccc2C(=O)N(C)O)c(Cl)cn1 [Example 63, 2-({5-Chloro-2-[(1-ethyl-3-methyl-1H-pyrazol-5-yl)amino]-4-pyridinyl}amino)-N-hydroxy-N-methylbenzamide] | 50.1 | –
CNC(=O)c1ccccc1Nc1cc(Nc2cc(C)nn2C)ncc1C(C)C [Example 58, 2-[2-(2,5-Dimethyl-2H-pyrazol-3-ylamino)-5-isopropyl-pyridin-4-ylamino]-N-methyl-benzamide] | 50.1 | –
CNC(=O)c1cccc(F)c1Nc1cc(Nc2cc(CO)nn2C)ncc1C(F)(F)F [Example 80, 3-Fluoro-2-{[2-{[3-(hydroxymethyl)-1-methyl-1H-pyrazol-5-yl]amino}-5-(trifluoromethyl)-4-pyridinyl]amino}-N-methylbenzamide] | 12.6 | –
